pIC50, pKd: −log10 of the molar value. Values belong to the molecule of their own block, whether it stands above or below them.
Legend:
[1] = biological target: Serine/threonine-protein kinase WNK1 (Homo sapiens, UniProt Q9H4A3); test: Inhibition of human WNK1 (198 to 401 residues) using biotinylated STK3 as substrate incubated for 2 hrs by HTRF assay
[2] = biological target: T1, Tyrosine-protein kinase ITK/TSK (Homo sapiens, UniProt Q08881); test: Inhibition of human N-terminal His6 tagged ITK (354 to 620 residues) expressed in Sf9 insect cells incubated for 30 mins by time-resolved fluorescence assay
T1 sequence (Q08881 whole entry): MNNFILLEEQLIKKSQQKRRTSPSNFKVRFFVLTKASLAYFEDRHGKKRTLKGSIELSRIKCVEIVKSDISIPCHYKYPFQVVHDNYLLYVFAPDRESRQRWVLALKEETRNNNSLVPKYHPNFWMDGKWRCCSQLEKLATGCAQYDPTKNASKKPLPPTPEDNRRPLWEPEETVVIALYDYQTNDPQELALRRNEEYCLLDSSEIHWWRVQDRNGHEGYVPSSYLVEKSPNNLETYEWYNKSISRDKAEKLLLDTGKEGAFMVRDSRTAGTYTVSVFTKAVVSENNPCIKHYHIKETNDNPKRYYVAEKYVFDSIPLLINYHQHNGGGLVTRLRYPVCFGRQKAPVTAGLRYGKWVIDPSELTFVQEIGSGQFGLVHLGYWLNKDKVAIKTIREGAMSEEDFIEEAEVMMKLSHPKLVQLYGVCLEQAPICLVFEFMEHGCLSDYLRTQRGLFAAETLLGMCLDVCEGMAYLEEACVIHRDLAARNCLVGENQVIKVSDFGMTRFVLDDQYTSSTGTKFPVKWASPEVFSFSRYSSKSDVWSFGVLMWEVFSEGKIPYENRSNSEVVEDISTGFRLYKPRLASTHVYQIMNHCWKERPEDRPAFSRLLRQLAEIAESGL

[3] = Binding affinity to MEK1/2 (unknown origin) assessed as dissociation constant; design: species or system Homo sapiens
[4] = biological target: Hepatocyte growth factor receptor (Homo sapiens, UniProt P08581); test: Inhibition of c-Met (unknown origin)
[5] = Inhibition of MEK1/2 (unknown origin); design: species or system Homo sapiens

Sequence of Hepatocyte growth factor receptor (P08581 whole entry): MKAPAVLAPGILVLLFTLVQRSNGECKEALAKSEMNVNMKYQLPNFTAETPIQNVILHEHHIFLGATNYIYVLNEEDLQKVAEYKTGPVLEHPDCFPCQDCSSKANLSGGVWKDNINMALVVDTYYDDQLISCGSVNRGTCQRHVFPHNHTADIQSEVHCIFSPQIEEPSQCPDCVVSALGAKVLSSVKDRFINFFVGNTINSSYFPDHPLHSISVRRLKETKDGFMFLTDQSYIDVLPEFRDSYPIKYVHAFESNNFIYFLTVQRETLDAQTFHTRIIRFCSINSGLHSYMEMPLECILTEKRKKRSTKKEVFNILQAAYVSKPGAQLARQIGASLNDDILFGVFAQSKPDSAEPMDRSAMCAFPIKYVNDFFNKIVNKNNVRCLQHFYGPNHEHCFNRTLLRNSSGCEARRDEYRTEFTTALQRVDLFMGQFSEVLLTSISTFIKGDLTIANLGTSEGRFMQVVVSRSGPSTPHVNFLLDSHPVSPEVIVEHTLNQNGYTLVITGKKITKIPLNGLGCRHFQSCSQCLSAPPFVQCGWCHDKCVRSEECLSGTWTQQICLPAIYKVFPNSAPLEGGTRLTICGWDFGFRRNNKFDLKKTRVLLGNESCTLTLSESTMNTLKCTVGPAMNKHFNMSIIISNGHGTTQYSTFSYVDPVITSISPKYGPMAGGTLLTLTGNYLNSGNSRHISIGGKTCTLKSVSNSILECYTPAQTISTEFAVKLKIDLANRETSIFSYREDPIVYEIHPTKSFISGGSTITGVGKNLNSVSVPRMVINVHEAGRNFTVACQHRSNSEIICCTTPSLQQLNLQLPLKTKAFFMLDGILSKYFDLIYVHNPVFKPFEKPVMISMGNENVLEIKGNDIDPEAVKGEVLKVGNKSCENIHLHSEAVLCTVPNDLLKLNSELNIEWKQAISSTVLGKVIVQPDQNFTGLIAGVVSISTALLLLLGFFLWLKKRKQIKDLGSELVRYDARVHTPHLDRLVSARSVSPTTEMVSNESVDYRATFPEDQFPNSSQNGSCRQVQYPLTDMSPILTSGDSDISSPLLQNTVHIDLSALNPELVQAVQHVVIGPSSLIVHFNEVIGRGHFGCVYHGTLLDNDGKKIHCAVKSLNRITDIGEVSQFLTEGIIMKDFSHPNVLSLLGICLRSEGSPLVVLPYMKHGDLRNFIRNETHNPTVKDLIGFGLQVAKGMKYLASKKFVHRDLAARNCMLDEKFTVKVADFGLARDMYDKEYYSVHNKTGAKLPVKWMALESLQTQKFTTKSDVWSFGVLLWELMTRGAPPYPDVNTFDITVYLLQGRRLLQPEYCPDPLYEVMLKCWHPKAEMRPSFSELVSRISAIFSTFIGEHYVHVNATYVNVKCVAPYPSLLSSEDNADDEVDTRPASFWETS
Sequence of Serine/threonine-protein kinase WNK1 (Q9H4A3 whole entry, the tested form may be a part): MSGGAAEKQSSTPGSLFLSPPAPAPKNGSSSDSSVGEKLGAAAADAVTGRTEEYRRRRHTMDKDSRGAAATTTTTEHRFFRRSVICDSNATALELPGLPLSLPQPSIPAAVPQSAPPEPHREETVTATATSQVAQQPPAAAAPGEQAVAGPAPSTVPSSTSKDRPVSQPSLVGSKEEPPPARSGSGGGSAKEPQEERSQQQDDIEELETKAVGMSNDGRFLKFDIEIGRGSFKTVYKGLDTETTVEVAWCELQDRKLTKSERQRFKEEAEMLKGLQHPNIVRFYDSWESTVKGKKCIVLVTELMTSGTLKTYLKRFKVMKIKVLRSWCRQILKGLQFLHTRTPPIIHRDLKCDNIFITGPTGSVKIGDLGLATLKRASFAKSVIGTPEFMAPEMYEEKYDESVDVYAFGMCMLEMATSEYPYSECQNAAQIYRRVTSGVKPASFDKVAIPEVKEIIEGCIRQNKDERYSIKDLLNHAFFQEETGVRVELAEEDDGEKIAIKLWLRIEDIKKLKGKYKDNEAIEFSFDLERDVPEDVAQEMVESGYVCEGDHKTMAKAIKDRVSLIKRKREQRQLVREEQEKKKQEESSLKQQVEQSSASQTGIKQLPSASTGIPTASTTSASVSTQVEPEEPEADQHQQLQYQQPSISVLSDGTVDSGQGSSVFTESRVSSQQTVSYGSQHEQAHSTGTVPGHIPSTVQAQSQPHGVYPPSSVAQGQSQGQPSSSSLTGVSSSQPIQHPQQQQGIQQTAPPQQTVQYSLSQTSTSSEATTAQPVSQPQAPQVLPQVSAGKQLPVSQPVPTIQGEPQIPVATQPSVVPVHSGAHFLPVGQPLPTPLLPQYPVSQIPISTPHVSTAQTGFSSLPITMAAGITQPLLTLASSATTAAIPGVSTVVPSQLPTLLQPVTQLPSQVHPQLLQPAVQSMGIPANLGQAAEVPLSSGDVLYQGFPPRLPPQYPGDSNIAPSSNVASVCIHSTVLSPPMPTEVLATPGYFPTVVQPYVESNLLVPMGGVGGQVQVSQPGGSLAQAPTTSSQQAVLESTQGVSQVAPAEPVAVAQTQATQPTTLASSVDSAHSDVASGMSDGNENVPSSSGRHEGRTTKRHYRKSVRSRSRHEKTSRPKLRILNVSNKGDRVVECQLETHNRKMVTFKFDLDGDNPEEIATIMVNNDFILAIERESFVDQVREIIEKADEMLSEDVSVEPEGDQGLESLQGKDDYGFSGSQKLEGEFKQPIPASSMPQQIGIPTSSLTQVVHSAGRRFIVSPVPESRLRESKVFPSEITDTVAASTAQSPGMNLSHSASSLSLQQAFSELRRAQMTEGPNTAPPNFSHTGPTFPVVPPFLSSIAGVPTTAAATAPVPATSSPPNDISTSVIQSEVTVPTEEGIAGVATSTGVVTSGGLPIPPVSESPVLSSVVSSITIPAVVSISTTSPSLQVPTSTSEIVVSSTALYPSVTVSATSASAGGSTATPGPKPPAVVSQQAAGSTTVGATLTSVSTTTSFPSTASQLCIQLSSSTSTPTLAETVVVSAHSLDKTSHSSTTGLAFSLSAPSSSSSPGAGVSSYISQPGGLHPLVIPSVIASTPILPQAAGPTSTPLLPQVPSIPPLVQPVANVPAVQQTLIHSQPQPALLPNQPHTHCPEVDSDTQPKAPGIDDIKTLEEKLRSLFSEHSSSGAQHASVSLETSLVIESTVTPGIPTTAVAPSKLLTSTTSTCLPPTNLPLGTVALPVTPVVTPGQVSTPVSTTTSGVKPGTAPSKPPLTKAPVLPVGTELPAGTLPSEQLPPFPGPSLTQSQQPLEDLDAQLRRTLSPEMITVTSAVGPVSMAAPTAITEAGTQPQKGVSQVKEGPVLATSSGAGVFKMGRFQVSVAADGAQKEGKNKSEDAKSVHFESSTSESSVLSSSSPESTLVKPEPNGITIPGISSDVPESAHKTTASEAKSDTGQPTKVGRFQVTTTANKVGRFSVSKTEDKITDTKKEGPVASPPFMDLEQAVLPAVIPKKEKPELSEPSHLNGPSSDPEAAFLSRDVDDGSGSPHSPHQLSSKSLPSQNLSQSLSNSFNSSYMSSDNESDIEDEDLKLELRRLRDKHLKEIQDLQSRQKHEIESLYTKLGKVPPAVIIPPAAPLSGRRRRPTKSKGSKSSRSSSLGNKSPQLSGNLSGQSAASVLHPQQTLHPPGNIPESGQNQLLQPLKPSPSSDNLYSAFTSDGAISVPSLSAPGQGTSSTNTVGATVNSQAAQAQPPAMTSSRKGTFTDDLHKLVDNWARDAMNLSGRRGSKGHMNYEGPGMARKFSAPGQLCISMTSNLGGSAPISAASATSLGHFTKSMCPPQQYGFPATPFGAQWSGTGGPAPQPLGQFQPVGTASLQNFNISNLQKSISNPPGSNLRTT

SMILES: CNc1nc(-c2ccc3c(c2)CCN3C(=O)c2ccccc2OCc2ccc(Cl)cc2)cs1
pIC50 [1]: 6.92

SMILES: CC(C)Oc1ccc2cccc(-n3cc(NC(N)=O)c(C(N)=O)n3)c2c1
pIC50 [2]: 7.52

SMILES: Cn1cnc2c(F)c(Nc3ccc(Br)cc3Cl)c(C(=O)NOCCO)cc21 [SELUMETINIB]
pKd [3]: 7.85

Next, values leading:

pIC50 [4]: 6.44
SMILES: O=C1NC(=O)[C@@H](c2cn3c4c(cccc24)CCC3)[C@@H]1c1c[nH]c2ccccc12 [TIVANTINIB]

pKd [3]: 8.52 | pIC50 [5]: 8.70
SMILES: CC(=O)Nc1cccc(-n2c(=O)n(C3CC3)c(=O)c3c(Nc4ccc(I)cc4F)n(C)c(=O)c(C)c32)c1 [TRAMETINIB]
